Assays:
[1] = Dye solubility in deionised water (spectroscopic determination in filtered solution); format: physicochemical; settings: for Solubility: deionised water, stirred 1 hour at 50° C, cooled to 20° C, filtered; for Solubility compared with previously known dye (in words): comparison with known dye, Table 4
Procedure: An excess of dye was dispersed in deionised water and this dispersion was stirred for 1 hour at 50° C. Then the mixture was cooled down to 20° C., centrifuged and filtered through a Millipore® filter of 0.5 μm pore diameter. Dye solubility was determined spectroscopically in the filtered solution.

[2] = Hydrolysis stability (pH change of 5% aqueous dye solution on storage); format: physicochemical; settings: for pH change during storage: 5% by weight aqueous solution, initial pH 7.0, 60° C, 30 days; for Stability against hydrolysis compared with known dye (2) (in words): comparison with dye (2), Table 4
Procedure: An aqueous solution (5% by weight) was prepared and the pH value of this solution was adjusted to 7.0. The solution was filtered through a Millipore® filter of 0.5 μm pore diameter. The filtered solution was then heated to a temperature of 60° C. for 30 days, cooled down afterwards to a temperature of 20° C. and the pH value was measured again. The difference of the pH values before and after storage is an indicator of hydrolysis stability.

[3] = Storage stability of inks (precipitation); format: physicochemical; design: key: ⊕: No precipitation; .diamond.: Slight precipitation; .O slashed.: Heavy precipitation; settings: ink, 0° C, 30 days, hermetically sealed bottles
Procedure: (§1) 100 g of each ink were prepared by heating the necessary components from Table 3 (all amounts are indicated in grams) together with water at a temperature of 50° C. under stirring for one hour. The resulting solution was cooled down to 20° C., its pH value was adjusted to 7.5 and the solution was passed through a Millipore® filter of 0.5 μm pore diameter.
The inks were stored at a temperature of 0° C. for 30 days in hermetically sealed bottles. The quantity of precipitate eventually formed was evaluated in the following way: […]

[4] = Jetting stability of inks (IRIS ink jet printer nozzle); design: key: ⊕: Unchanged; .diamond.: Slightly changed; .O slashed.: Heavily changed; settings: 100 hours continual jetting, exit angle and nozzle condition
Procedure: as §1
The inks were expelled continually during 100 hours from a nozzle of the IRIS ink jet printer. Afterwards the change of the exit angle of the ink stream and the condition of the nozzle were evaluated in the following way: […]

SMILES | Solubility [1] [g per 100 ml] | pH change during storage [2] | (C) Storage stability [3] | (D) Jetting stability [4] | Solubility compared with previously known dye (in words) [1] | Stability against hydrolysis compared with known dye (2) (in words) [2]
COc1cc(N=Nc2cc(S(=O)(=O)O)c3cccc(S(=O)(=O)O)c3c2)c(C)cc1Nc1nc(SCCCS(=O)(=O)O)nc(SCCCS(=O)(=O)O)n1 [(2)] | 34 | -0.5 | ⊕ | ⊕ | – | –
CCN(c1ccccc1)c1nc(Nc2cc(S(=O)(=O)O)cc3cc(S(=O)(=O)O)c(N=Nc4ccccc4S(=O)(=O)O)c(O)c23)nc(SCCCS(=O)(=O)O)n1 [(117)] | – | – | ⊕ | ⊕ | – | –
Nc1ccc2cc(S(=O)(=O)O)cc(O)c2c1N=Nc1ccc(Nc2nc(NCCO)nc(Nc3cccc(S(=O)(=O)O)c3)n2)cc1S(=O)(=O)O [(1)] | 12 | -0.2 | .diamond. | .diamond. | – | –
Nc1ccc2cc(S(=O)(=O)O)cc(O)c2c1N=Nc1ccc(Nc2nc(SCCCS(=O)(=O)O)nc(N(CCO)CCO)n2)cc1S(=O)(=O)O [(121)] | 38 | -0.1 | ⊕ | ⊕ | considerably higher solubility than the previously known dye (2) | much better stability against hydrolysis than the known dye (2)
COc1cc(N=Nc2cc(S(=O)(=O)O)c3cccc(S(=O)(=O)O)c3c2)c(C)cc1Nc1nc(SCCCS(=O)(=O)O)nc(N(C)CCO)n1 [(120)] | 34 | 0 | ⊕ | ⊕ | considerably higher solubility than the previously known dye (2) | much better stability against hydrolysis than the known dye (2)
CCOc1nc(Nc2ccc(N=Nc3c(N)ccc4cc(S(=O)(=O)O)cc(O)c34)c(S(=O)(=O)O)c2)nc(SCCCS(=O)(=O)O)n1 [(113)] | 32 | -0.1 | ⊕ | ⊕ | considerably higher solubility than the previously known dye (2) | much better stability against hydrolysis than the known dye (2)
CCOc1nc(Nc2cc(C)c(N=Nc3cc(S(=O)(=O)O)c4cccc(S(=O)(=O)O)c4c3)cc2OC)nc(SCCCS(=O)(=O)O)n1 [(100)] | 32 | 0 | ⊕ | ⊕ | considerably higher solubility than the previously known dye (2) | much better stability against hydrolysis than the known dye (2)

— patent US6068687A, “Azo dyes and their preparation and use” (Ilford Imaging Switzerland GmbH, priority 1997, dated 2000)
